Patent publication US20240294541A1, “COMPOUNDS CONSTITUTING C20-MODIFIED SALINOMYCIN DERIVATIVES, A METHOD FOR OBTAINING THE SAME, A COMPOSITION CONTAINING THE SAME AND A USE OF SAID COMPOUNDS” (FILECLO SPOLKA Z OGRANICZONA ODPOWIEDZIALNOSCIA, priority 2021, published 2024)

Tests used:
Type in all cases: cell-based
[1] = tested on: NCI-H23 (human lung cancer); assay: In vitro cytotoxicity, SRB assay, NCI-H23; conditions: for IC50: Homo sapiens, NCI-H23, 72 h with compound, SRB, n/a = non-active compound, read-out: NCI-H23 IC50; for NCI-H23 SI: selectivity coefficient vs normal BALB/3T3 cells
[2] = tested on: MIA PaCa-2 (human pancreatic cancer); assay: cells; conditions: for IC50: Homo sapiens, MIA PaCa-2, 72 h with compound, SRB, n/a = non-active compound, read-out: MIA PaCa-2 IC50; for MIA PaCa-2 SI: selectivity coefficient vs normal BALB/3T3 cells
Hs294T (human melanoma) = assay: cells; conditions: for IC50: Homo sapiens, Hs 294T, 72 h with compound, SRB, n/a = non-active compound, read-out: Hs294T IC50; for Hs294T SI: selectivity coefficient vs normal BALB/3T3 cells
[3] = tested on: A2780Cis (cisplatin-resistant human ovarian cancer); assay: In vitro cytotoxicity, SRB assay, A2780Cis; conditions: for IC50: Homo sapiens, A2780cis, 72 h, read-out: A2780Cis IC50 (nM)
[4] = tested on: KG-1 (human acute myeloid leukaemia); assay: In vitro cytotoxicity, MTT assay, KG-1; conditions: for IC50: Homo sapiens, 72 h with compound, MTT, n/a = non-active compound; for KG-1 SI: selectivity coefficient vs normal BALB/3T3 cells
[5] = tested on: BALB/3T3 (normal mouse fibroblasts); assay: In vitro cytotoxicity, SRB assay, normal BALB/3T3 fibroblasts; conditions: Mus musculus, BALB/3T3; normal cells; 72 h with compound, SRB; n/a = non-active compound; read-out: BALB/3T3 IC50
[6] = tested on: PFSK-1 (malignant primitive neuroectodermal tumour); assay: In vitro cytotoxicity, SRB assay, PFSK-1; conditions: for IC50: Homo sapiens, PFSK-1, 72 h with compound, SRB, n/a = non-active compound, read-out: PFSK-1 IC50; for PFSK-1 SI: selectivity coefficient vs normal BALB/3T3 cells
[7] = tested on: SNU-16 (human gastric cancer); assay: cells; conditions: for IC50: Homo sapiens, SNU-16, 72 h with compound, MTT, n/a = non-active compound, read-out: SNU-16 IC50; for SNU-16 SI: selectivity coefficient vs normal BALB/3T3 cells
A375 (human melanoma) = assay: In vitro cytotoxicity, SRB assay, A375; conditions: for IC50: Homo sapiens, A-375, 72 h with compound, SRB, n/a = non-active compound, read-out: A375 IC50; for A375 SI: selectivity coefficient vs normal BALB/3T3 cells
[8] = tested on: A2780 (human ovarian cancer); assay: In vitro cytotoxicity, SRB assay, A2780; conditions: for IC50: Homo sapiens, A2780, 72 h with compound, SRB, n/a = non-active compound, read-out: A2780 IC50; for A2780 SI: selectivity coefficient vs normal BALB/3T3 cells
[9] = tested on: PLC/PRF/5 (human liver cancer); assay: cells; conditions: for IC50: Homo sapiens, PLC-PRF-5, 72 h with compound, SRB, n/a = non-active compound, read-out: PLC/PRF/5 IC50; for PLC/PRF/5 SI: selectivity coefficient vs normal BALB/3T3 cells

SMILES | IC50 [1] [µM] | NCI-H23 SI [1] | IC50 [2] [µM] | MIA PaCa-2 SI [2] | A2780Cis RI [3] | A2780Cis SI [3] | IC50 [3] [nM] | IC50 [4] [µM] | KG-1 SI [4] | IC50 [5] [µM] | IC50 [6] [µM] | PFSK-1 SI [6] | IC50 [7] [µM] | SNU-16 SI [7] | IC50 (A375 (human melanoma)) [µM] | A375 SI (A375 (human melanoma)) | IC50 [8] [µM] | A2780 SI [8] | IC50 [9] [µM] | PLC/PRF/5 SI [9] | other results
CC[C@@H](C(=O)[C@@H](C)[C@@H](O)[C@H](C)[C@@H]1O[C@@H]([C@@H](CC)C(=O)O)CC[C@@H]1C)[C@H]1O[C@]2(C=C[C@@H](NC(=O)NCc3ccccc3)[C@]3(CC[C@@](C)([C@H]4CC[C@](O)(CC)[C@H](C)O4)O3)O2)[C@H](C)C[C@@H]1C [FLC-00337-1] | 0.445 | 0.3 | 0.056 | 2.2 | 0.6 | 61.5 | 1.98 | 0.122 | 1.0 | 0.122 | 0.0194 | 6.3 | 0.0214 | 5.7 | 0.296 | 0.4 | 0.0031 | 39.2 | 0.0414 | 2.9 | IC50 (Hs294T (human melanoma)): 0.549 µM; Hs294T SI (Hs294T (human melanoma)): 0.2
CC[C@@H](C(=O)[C@@H](C)[C@@H](O)[C@H](C)[C@@H]1O[C@@H]([C@@H](CC)C(=O)O)CC[C@@H]1C)[C@H]1O[C@]2(C=C[C@@H](NC(=O)NCCCl)[C@]3(CC[C@@](C)([C@H]4CC[C@](O)(CC)[C@H](C)O4)O3)O2)[C@H](C)C[C@@H]1C [FLC-00338-1 Na] | 0.62 | 0.3 | 0.0586 | 2.8 | 1.9 | 16.2 | 10.1 | 0.222 | 0.7 | 0.164 | 0.0531 | 3.1 | 0.0392 | 4.2 | 0.354 | 0.5 | 0.0054 | 30.4 | 0.0616 | 2.7 | IC50 (Hs294T (human melanoma)): 1.87 µM; Hs294T SI (Hs294T (human melanoma)): 0.1
CCNC(=S)N[C@@H]1C=C[C@]2(O[C@H]([C@@H](CC)C(=O)[C@@H](C)[C@@H](O)[C@H](C)[C@@H]3O[C@@H]([C@@H](CC)C(=O)O)CC[C@@H]3C)[C@@H](C)C[C@H]2C)O[C@@]12CC[C@@](C)([C@H]1CC[C@](O)(CC)[C@H](C)O1)O2 [FLC-00339-1 Na] | 0.00438 | 12.4 | 0.0171 | 3.2 | 0.9 | 26.7 | 2.04 | 0.0111 | 4.9 | 0.0545 | 0.0161 | 3.4 | 0.0175 | 3.1 | 0.0269 | 2.0 | 0.00227 | 24.0 | 0.0108 | 5.0 | 
CC[C@@H](C(=O)[C@@H](C)[C@@H](O)[C@H](C)[C@@H]1O[C@@H]([C@@H](CC)C(=O)O)CC[C@@H]1C)[C@H]1O[C@]2(C=C[C@@H](NC(=S)Nc3ccc(F)cc3)[C@]3(CC[C@@](C)([C@H]4CC[C@](O)(CC)[C@H](C)O4)O3)O2)[C@H](C)C[C@@H]1C [FLC-00340-1 Na] | 0.00864 | 6.7 | 0.0339 | 1.7 | 0.8 | 31.4 | 1.84 | 0.0244 | 2.4 | 0.0577 | 0.00937 | 6.2 | 0.0167 | 3.5 | 0.0312 | 1.8 | 0.00241 | 24.0 | 0.0191 | 3.0 | 
CC[C@@H](C(=O)[C@@H](C)[C@@H](O)[C@H](C)[C@@H]1O[C@@H]([C@@H](CC)C(=O)O)CC[C@@H]1C)[C@H]1O[C@]2(C=C[C@@H](NC(=O)Nc3cc(C(F)(F)F)cc(C(F)(F)F)c3)[C@]3(CC[C@@](C)([C@H]4CC[C@](O)(CC)[C@H](C)O4)O3)O2)[C@H](C)C[C@@H]1C [FLC-00344-1 Na] | 0.285 | 3.7 | 0.383 | 2.8 | 1.2 | 43.8 | 24.3 | 0.286 | 3.7 | 1.06 | 0.112 | 9.5 | 0.106 | 10.0 | 2.31 | 0.5 | 0.021 | 50.5 | 1.29 | 0.8 | IC50 (Hs294T (human melanoma)): 2.57 µM; Hs294T SI (Hs294T (human melanoma)): 0.4
CC[C@@H](C(=O)[C@@H](C)[C@@H](O)[C@H](C)[C@@H]1O[C@@H]([C@@H](CC)C(=O)O)CC[C@@H]1C)[C@H]1O[C@]2(C=C[C@@H](NC(=O)NS(=O)(=O)c3ccc(C)cc3)[C@]3(CC[C@@](C)([C@H]4CC[C@](O)(CC)[C@H](C)O4)O3)O2)[C@H](C)C[C@@H]1C [FLC-00364-1] | 4.79 |  |  |  | 0.4 |  | 1130 | 3.7 |  |  | 5.6 |  | 5.38 |  |  |  | 2.6 |  | 4.48 |  | 
CC[C@@H](C(=O)[C@@H](C)[C@@H](O)[C@H](C)[C@@H]1O[C@@H]([C@@H](CC)C(=O)O)CC[C@@H]1C)[C@H]1O[C@]2(C=C[C@@H](NC(=O)NS(=O)(=O)c3ccccc3)[C@]3(CC[C@@](C)([C@H]4CC[C@](O)(CC)[C@H](C)O4)O3)O2)[C@H](C)C[C@@H]1C [FLC-00365-1] |  |  |  |  | 0.9 |  | 3020 | 8 |  |  | 6.2 |  | 5.83 |  |  |  | 3.48 |  |  |  | 
CC[C@@H](C(=O)[C@@H](C)[C@@H](O)[C@H](C)[C@@H]1O[C@@H]([C@@H](CC)C(=O)O)CC[C@@H]1C)[C@H]1O[C@]2(C=C[C@@H](NC(=O)NC(=O)C(Cl)(Cl)Cl)[C@]3(CC[C@@](C)([C@H]4CC[C@](O)(CC)[C@H](C)O4)O3)O2)[C@H](C)C[C@@H]1C [FLC-00367-1] | 0.682 | 7.4 | 3.22 | 1.6 | 0.8 | 19.1 | 266 | 0.666 | 7.6 | 5.08 | 0.689 | 7.4 | 0.368 | 13.8 | 5.92 | 0.9 | 0.322 | 15.7 | 0.94 | 5.4 | 
